The source of these data is article PMC3574796 (Future medicinal chemistry, 2012).

For assay [1], the system named is malaria parasite. The following applies: cited from earlier work.
Assay [2] has as its system P. falciparum parasites (DV morphology). Put plainly: Digestive vacuole phenotype, light microscopy of Giemsa-stained parasites. Type of assay: cell-based, Plasmodium falciparum. The settings on record: 3.3 µM compound.

Consider `Nc1cc(Cl)ccc1Cl` [2,5-dichloroaniline], for which the Antimalarial activity result in assay [1] is “without antimalarial activity”. For `CC(C)C[C@H](NC(=O)[C@H]1O[C@@H]1C(=O)O)C(=O)NCCCCN=C(N)N` [Compound E64, E64], the DV phenotype entry in assay [2] was “swollen and dark staining DV phenotype”.
